Patent US6150385A, “1,3,4-thiadiazoles useful for the treatment of CMV infections” (Pharmacia & Upjohn Company, priority 1999, dated 2000)

What follows are molecules tested against T1, HCMV polymerase (Human cytomegalovirus, UniProt P08546) (assay: HCMV polymerase assay (scintillation proximity assay)). Details: percentage of inhibition at 25 μM concentration in CMV polymerase assay.
T1 construct: made in house; host or cells: SF-9 insect cells infected with recombinant baculovirus
Assay type: biochemical
Outline: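 Baculovirus/SF-9-expressed HCMV polymerase in 5.4 mM HEPES pH 7.5, 11.7 mM KCl, 4.5 mM MgCl2, 0.36 mg/ml BSA, 90 nM 3H-dTTP, with or without 2 mM CHAPS. Started with 6 nM biotinylated poly(dA)-oligo(dT), 30 min at 25 or 37 °C, EDTA-stopped, read by streptavidin-SPA counting; % inhibition at 25 μM.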

T1 sequence (P08546 whole entry): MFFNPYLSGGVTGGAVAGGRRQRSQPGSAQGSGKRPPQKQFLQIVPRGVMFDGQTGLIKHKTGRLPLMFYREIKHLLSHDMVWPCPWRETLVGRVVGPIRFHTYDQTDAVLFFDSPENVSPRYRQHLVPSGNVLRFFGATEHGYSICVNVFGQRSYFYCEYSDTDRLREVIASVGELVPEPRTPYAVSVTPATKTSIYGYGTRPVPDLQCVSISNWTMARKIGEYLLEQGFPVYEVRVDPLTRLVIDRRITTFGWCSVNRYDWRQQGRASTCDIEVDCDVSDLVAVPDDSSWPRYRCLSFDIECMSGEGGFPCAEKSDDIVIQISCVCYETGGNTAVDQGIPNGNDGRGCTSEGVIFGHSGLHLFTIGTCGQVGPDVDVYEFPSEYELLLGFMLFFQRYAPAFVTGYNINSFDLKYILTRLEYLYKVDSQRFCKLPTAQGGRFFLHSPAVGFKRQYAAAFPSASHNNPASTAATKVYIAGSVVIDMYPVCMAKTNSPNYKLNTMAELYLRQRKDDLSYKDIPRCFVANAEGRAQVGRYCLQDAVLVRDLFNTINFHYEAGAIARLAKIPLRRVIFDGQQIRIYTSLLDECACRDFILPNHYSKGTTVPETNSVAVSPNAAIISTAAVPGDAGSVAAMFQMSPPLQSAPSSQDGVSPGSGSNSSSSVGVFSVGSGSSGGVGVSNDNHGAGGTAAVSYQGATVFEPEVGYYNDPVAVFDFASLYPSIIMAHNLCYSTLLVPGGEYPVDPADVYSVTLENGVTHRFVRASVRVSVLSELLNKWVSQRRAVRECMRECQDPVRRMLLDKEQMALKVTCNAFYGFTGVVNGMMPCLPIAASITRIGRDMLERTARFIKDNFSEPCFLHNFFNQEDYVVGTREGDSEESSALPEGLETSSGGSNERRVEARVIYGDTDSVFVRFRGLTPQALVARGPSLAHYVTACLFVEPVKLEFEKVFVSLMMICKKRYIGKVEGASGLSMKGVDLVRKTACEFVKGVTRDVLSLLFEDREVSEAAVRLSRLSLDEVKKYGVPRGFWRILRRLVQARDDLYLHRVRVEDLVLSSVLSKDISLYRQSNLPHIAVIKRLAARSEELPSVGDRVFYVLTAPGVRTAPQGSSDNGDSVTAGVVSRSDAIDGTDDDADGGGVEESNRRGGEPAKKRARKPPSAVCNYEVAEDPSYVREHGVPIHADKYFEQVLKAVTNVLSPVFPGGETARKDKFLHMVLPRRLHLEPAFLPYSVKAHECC

Going from `CC(=O)NCCNc1nnc(NC(=O)/C=C/c2ccccc2)s1` [compound 400, (E)-N-(5-{[2-(acetylamino)ethyl]amino}-1,3,4-thiadiazol-2-yl)-3-phenyl-2-propenamide] to `O=C(/C=C/c1ccccc1)Nc1nnc(NCCN2CCCC2)s1` [compound 432, (E)-3-phenyl-N-(5-{[2-(1-pyrrolidinyl)ethyl]amino}-1,3,4-thiadiazol-2-yl)-2-propenamide], the inhibition at 25 µM falls from 25.8% to 23%.

Compared with `CC(C)c1cc(C(C)C)c(C(=O)Nc2nnc(NCc3ccc(F)cc3)s2)c(C(C)C)c1` [compound 401, N-{5-[(4-fluorobenzyl)amino]-1,3,4-thiadiazol-2-yl}-2,4,6-triisopropylbenzamide], `CC(C)c1cc(C(C)C)c(C(=O)Nc2nnc(NCc3cccs3)s2)c(C(C)C)c1` [compound 424, 2,4,6-triisopropyl-N-{5-[(2-thienylmethyl)amino]-1,3,4-thiadiazol-2-yl}benzamide] is lower in inhibition at 25 µM: 25.5% for the first, 23.6% for the second.

First: O=C(Nc1nnc(NCc2cccc3ccccc23)s1)c1ccc(I)cc1 [compound 402, 4-iodo-N-{5-[(1-naphthylmethyl)amino]-1,3,4-thiadiazol-2-yl}benzamide]
Second: O=C(Nc1nnc(NCCc2ccccc2)s1)c1ccc(I)cc1 [compound 415, 4-iodo-N-[5-(phenethylamino)-1,3,4-thiadiazol-2-yl]benzamide]
The inhibition at 25 µM of the first is higher: 25.5% for the first, 24.6% for the second.

Going from `CC1(C)C2CC[C@@H](CNc3nnc(NC(=O)c4cc5ccccc5s4)s3)C1C2` (stereo partly drawn) [compound 403, N-[5-({[(2R)-6,6-dimethylbicyclo[3.1.1]hept-2-yl]methyl}amino)-1,3,4-thiadiazol-2-yl]-1-benzothiophene-2-carboxamide] to `O=C(Nc1nnc(NCC2CCCO2)s1)c1cc2ccccc2s1` (stereo not shown) [compound 405, N-{5-[(tetrahydro-2-furanylmethyl)amino]-1,3,4-thiadiazol-2-yl}-1-benzothiophene-2-carboxamide], the inhibition at 25 µM falls from 25.3% to 25%.

Going from `O=C(Nc1nnc(NC2CCc3ccccc32)s1)c1ccc([N+](=O)[O-])o1` (stereo not shown) [compound 404, N-[5-(2,3-dihydro-1H-inden-1-ylamino)-1,3,4-thiadiazol-2-yl]-5-nitro-2-furamide] to `COc1ccccc1C(=O)Nc1nnc(NC2CCCc3ccccc32)s1` (stereo not shown) [compound 428, 2-methoxy-N-[5-(1,2,3,4-tetrahydro-1-naphthalenylamino)-1,3,4-thiadiazol-2-yl]benzamide], the inhibition at 25 µM falls from 25.2% to 23.3%.

`CCSCCNc1nnc(NC(=O)c2ccc(C(F)(F)F)cc2)s1` [compound 406, N-(5-{[2-(ethylsulfanyl)ethyl]amino}-1,3,4-thiadiazol-2-yl)-4-(trifluoromethyl)benzamide] and `CC(C)(C)OC(=O)CCNc1nnc(NC(=O)c2ccc(C(F)(F)F)cc2)s1` [compound 407, tert-butyl 3-[(5-{[4-(trifluoromethyl)benzoyl]amino}-1,3,4-thiadiazol-2-yl)amino]propanoate] are the same in inhibition at 25 µM: 25% for the first, 25% for the second.

Going from `O=C(Nc1nnc(NCCNc2ccccc2)s1)c1ccc(Cl)c(Cl)c1` [compound 408, N-{5-[(2-anilinoethyl)amino]-1,3,4-thiadiazol-2-yl}-3,4-dichlorobenzamide] to `O=C(Nc1nnc(NCCNc2ccccc2)s1)c1c(Cl)cccc1Cl` [compound 438, N-{5-[(2-anilinoethyl)amino]-1,3,4-thiadiazol-2-yl}-2,6-dichlorobenzamide], the inhibition at 25 µM falls from 24.9% to 22.6%.

Compared with `CC(C)c1cc(C(C)C)c(C(=O)Nc2nnc(NCC3CCCCC3)s2)c(C(C)C)c1` [compound 409, N-{5-[(cyclohexylmethyl)amino]-1,3,4-thiadiazol-2-yl}-2,4,6-triisopropylbenzamide], `CC(C)c1cc(C(C)C)c(C(=O)Nc2nnc(NCCC#N)s2)c(C(C)C)c1` [compound 435, N-{5-[(2-cyanoethyl)amino]-1,3,4-thiadiazol-2-yl}-2,4,6-triisopropylbenzamide] is lower in inhibition at 25 µM: 24.9% for the first, 22.8% for the second.

Going from `CCCCCCCCCCCNc1nnc(NC(=O)c2c(Cl)cccc2Cl)s1` [compound 410, 2,6-dichloro-N-[5-(undecylamino)-1,3,4-thiadiazol-2-yl]benzamide] to `CC(C)(C)OC(=O)CCNc1nnc(NC(=O)c2ccc(Cl)c(Cl)c2)s1` [compound 420, tert-butyl 3-({5-[(3,4-dichlorobenzoyl)amino]-1,3,4-thiadiazol-2-yl}amino)propanoate], the inhibition at 25 µM falls from 24.9% to 24.1%.

First: O=C(Nc1nnc(NCCc2ccccc2)s1)c1cccc([N+](=O)[O-])c1 [compound 411, 3-nitro-N-[5-(phenethylamino)-1,3,4-thiadiazol-2-yl]benzamide]
Second: O=C(Nc1nnc(NCCCCc2ccccc2)s1)c1cccc([N+](=O)[O-])c1 [compound 413, 3-nitro-N-{5-[(4-phenylbutyl)amino]-1,3,4-thiadiazol-2-yl}benzamide]
The inhibition at 25 µM of the first is higher: 24.8% for the first, 24.7% for the second.

Going from `CC(=O)NCCNc1nnc(NC(=O)c2cc3ccccc3s2)s1` [compound 412, N-(5-{[2-(acetylamino)ethyl]amino}-1,3,4-thiadiazol-2-yl)-1-benzothiophene-2-carboxamide] to `O=C(Nc1nnc(NCCNc2ccccc2)s1)c1ccc(Br)cc1` [compound 434, N-{5-[(2-anilioethyl)amino]-1,3,4-thiadiazol-2-yl}-4-bromobenzamide], the inhibition at 25 µM falls from 24.7% to 22.8%.

First: COc1ccccc1C(=O)Nc1nnc(NCc2ccc3c(c2)OCO3)s1 [compound 414, N-{5-[(1,3-benzodioxol-5-ylmethyl)amino]-1,3,4-thiadiazol-2-yl}-2-methoxybenzamide]
Second: COc1ccccc1C(=O)Nc1nnc(NCCCCc2ccccc2)s1 [compound 429, 2-methoxy-N-{5-[(4-phenylbutyl)amino]-1,3,4-thiadiazol-2-yl}benzamide]
The inhibition at 25 µM of the first is higher: 24.7% for the first, 23.2% for the second.

Going from `O=C(Nc1nnc(NCc2ccc(Cl)c(Cl)c2)s1)c1ccc(F)cc1F` [compound 416, N-{5-[(3,4-dichlorobenzyl)amino]-1,3,4-thiadiazol-2-yl}-2,4-difluorobenzamide] to `O=C(Nc1nnc(NCc2ccc(F)cc2)s1)c1ccc(F)cc1F` [compound 423, 2,4-difluoro-N-{5-[(4-fluorobenzyl)amino]-1,3,4-thiadiazol-2-yl}benzamide], the inhibition at 25 µM falls from 24.5% to 23.8%.

Compared with `O=C(Nc1nnc(NCc2cccnc2)s1)c1ccc(Cl)c(Cl)c1` [compound 417, 3,4-dichloro-N-{5-[(3-pyridinylmethyl)amino]-1,3,4-thiadiazol-2-yl}benzamide], `O=C(/C=C/c1ccccc1)Nc1nnc(NCc2cccnc2)s1` [compound 421, (E)-3-phenyl-N-{5-[(3-pyridinylmethyl)amino]-1,3,4-thiadiazol-2-yl}-2-propenamide] is lower in inhibition at 25 µM: 24.4% for the first, 24% for the second.

First: O=C(Nc1nnc(NC2CCCCCC2)s1)c1ccc(Cl)c(Cl)c1 [compound 418, 3,4-dichloro-N-[5-(cycloheptylamino)-1,3,4-thiadiazol-2-yl]benzamide]
Second: O=C(Nc1nnc(NCC2CCCCC2)s1)c1ccc(F)cc1F [compound 433, N-{5-[(cyclohexylmethyl)amino]-1,3,4-thiadiazol-2-yl}-2,4-difluorobenzamide]
The inhibition at 25 µM of the first is higher: 24.4% for the first, 22.9% for the second.

Compared with `O=C(Nc1nnc(NCCCN2CCCC2=O)s1)c1ccc(Br)cc1` [compound 419, 4-bromo-N-(5-{[3-(2-oxo-1-pyrrolidinyl)propyl]amino}-1,3,4-thiadiazol-2-yl)benzamide], `O=C(Nc1nnc(NCCCN2CCCC2=O)s1)c1ccc(F)cc1F` [compound 427, 2,4-difluoro-N-(5-{[3-(2-oxo-1-pyrrolidinyl)propyl]amino}-1,3,4-thiadiazol-2-yl)benzamide] is lower in inhibition at 25 µM: 24.3% for the first, 23.4% for the second.

First: CN1CCN(CCCNc2nnc(NC(=O)/C=C/c3ccccc3Cl)s2)CC1 [compound 422, (E)-3-(2-chlorophenyl)-N-(5-{[3-(4-methylpiperazino)propyl]amino}-1,3,4-thiadiazol-2-yl)-2-propenamide]
Second: O=C(/C=C/c1ccccc1Cl)Nc1nnc(NCC2CCCCC2)s1 [compound 439, (E)-3-(2-chlorophenyl)-N-{5-[(cyclohexylmethyl)amino]-1,3,4-thiadiazol-2-yl}-2-propenamide]
The inhibition at 25 µM of the first is higher: 24% for the first, 22.5% for the second.

Compared with `O=C(Nc1nnc(NCc2cccs2)s1)c1ccc(I)cc1` [compound 425, 4-iodo-N-{5-[(2-thienylmethyl)amino]-1,3,4-thiadiazol-2-yl}benzamide], `O=C(Nc1nnc(NCCc2cccs2)s1)c1ccc(I)cc1` [compound 430, 4-iodo-N-(5-{[2-(2-thienyl)ethyl]amino}-1,3,4-thiadiazol-2-yl)benzamide] is lower in inhibition at 25 µM: 23.5% for the first, 23.1% for the second.

Going from `CC(C)(C)OC(=O)CCNc1nnc(NC(=O)/C=C/c2ccccc2Cl)s1` [compound 426, tert-butyl 3-[(5-{[(E)-3-(2-chlorophenyl)-2-propenoyl]amino}-1,3,4-thiadiazol-2-yl)amino]propanoate] to `O=C(Nc1nnc(NCCc2ccccc2)s1)c1cc(F)cc(F)c1` [compound 437, 3,5-difluoro-N-[5-(phenethylamino)-1,3,4-thiadiazol-2-yl]benzamide], the inhibition at 25 µM falls from 23.5% to 22.7%.

Going from `CCOc1ccc2ccccc2c1C(=O)Nc1nnc(NCC2CCCCC2)s1` [compound 431, N-{5-[(cyclohexylmethyl)amino]-1,3,4-thiadiazol-2-yl}-2-ethoxy-1-naphthamide] to `COc1ccc(CNc2nnc(NC(=O)c3cccc([N+](=O)[O-])c3)s2)cc1OC` [compound 436, N-{5-[(3,4-dimethoxybenzyl)amino]-1,3,4-thiadiazol-2-yl}-3-nitrobenzamide], the inhibition at 25 µM falls from 23.1% to 22.8%.
